Common to all, as to experiment: relative viability (nuclei count vs DMSO), 5 days (fraction); higher = more cells survive
Compound in one assay: CC(C)C[C@@H](C(=O)N[C@H](C(=O)OC1CCCC1)c1ccccc1)[C@H](O)C(=O)NO [Tosedostat]
In a few lines: (§1)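 For viability, nuclei in each treated well were divided by nuclei in vehicle wells and the median across plates was taken. Lung cancer cell lines in 1536-well plates were pinned with five library-drug doses (not always all listed) spaced by √10, cultured 5 days without medium change, and imaged at 4× after Hoechst staining, with plates passing only at control CV below 25% and at least one doubling.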

Compound in assay [1]: CC1=NN=C(O1)C2=NN=C(C=C2)N3CCC(CC3)OC4=C(C=CC(=C4)F)Cl
The gist of the method:
as §1

Compound in the assay “Tosedostat + Alpelisib”: CC(C)C[C@@H](C(=O)N[C@H](C(=O)OC1CCCC1)c1ccccc1)[C@H](O)C(=O)NO [Tosedostat] + Cc1nc(NC(=O)N2CCC[C@H]2C(N)=O)sc1-c1ccnc(C(C)(C)C(F)(F)F)c1 [Alpelisib] (partner 2 µM)
In a few lines:
(§2)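 Relative viability equals treated-well nuclei counts divided by vehicle-well nuclei counts. Counts came from 4× images of lung cancer cell lines grown in 1536-well plates for 5 days after pin-tool dosing on the day after seeding. Dosing used one drug alone or a fixed anchor-drug dose plus five library-drug doses (not always all listed) in √10 steps, and values are medians of duplicate plates.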

Compound in assay [2]: CC1=NN=C(O1)C2=NN=C(C=C2)N3CCC(CC3)OC4=C(C=CC(=C4)F)Cl + Nc1nc2[nH]cc(CCc3ccc(C(=O)N[C@@H](CCC(=O)O)C(=O)O)cc3)c2c(=O)[nH]1 [Pemetrexed] (partner 0.2 µM)
In a few lines: as §2

The text below walks through data of the supplement of paper PMC10307832.

Turning to HCC-366, the relative viability in the assay with Tosedostat (0.02 µM) worked out at 1.02; with Tosedostat (0.06325 µM) it was 1.01; with Tosedostat (0.2 µM) it was 1.03; in the assay with Tosedostat (0.6325 µM), 0.979; with Tosedostat (2 µM), 1.01; in assay [1] (0.253 µM), 0.484. The relative viability in assay [1] (0.8 µM) was 0.469; in assay [1] (2.53 µM) it was 0.508; in assay [1] (8 µM), 0.482; with Tosedostat + Alpelisib (first compound 0.02 µM) it was 0.331; with Tosedostat + Alpelisib (first compound 0.06325 µM), 0.357; in the assay with Tosedostat + Alpelisib (first compound 0.2 µM) it was 0.376. The relative viability was found to be 0.382 with Tosedostat + Alpelisib (first compound 0.6325 µM); 0.342 in the assay with Tosedostat + Alpelisib (first compound 2 µM); 0.0851 in assay [2] (first compound 0.253 µM); 0.121 in assay [2] (first compound 0.8 µM); 0.174 in assay [2] (first compound 2.53 µM); 0.15 in assay [2] (first compound 8 µM).
As for HCC-827, the relative viability amounted to 1.03 with Tosedostat (0.02 µM); 1.06 in the assay with Tosedostat (0.06325 µM); 1.1 with Tosedostat (0.2 µM); 0.957 in the assay with Tosedostat (0.6325 µM); 1.01 with Tosedostat (2 µM); 0.47 in assay [1] (0.253 µM). For the same cell line, the relative viability in assay [1] (0.8 µM) came to 0.297; in assay [1] (2.53 µM) it was 0.455; in assay [1] (8 µM), 0.443; with Tosedostat + Alpelisib (first compound 0.02 µM) it was 0.826; with Tosedostat + Alpelisib (first compound 0.06325 µM), 0.934; with Tosedostat + Alpelisib (first compound 0.2 µM), 1.02. The relative viability in the assay with Tosedostat + Alpelisib (first compound 0.6325 µM) is 0.842; with Tosedostat + Alpelisib (first compound 2 µM), 0.875; in assay [2] (first compound 0.253 µM) it was 0.257; in assay [2] (first compound 0.8 µM) it was 0.244; in assay [2] (first compound 2.53 µM), 0.246; in assay [2] (first compound 8 µM), 0.224.
For the cell line HOP-62, the relative viability with Tosedostat (0.02 µM) is 1.12; with Tosedostat (0.06325 µM) it was 0.977; with Tosedostat (0.2 µM), 0.932; in the assay with Tosedostat (0.6325 µM), 0.945; with Tosedostat (2 µM) it was 0.9; in assay [1] (0.253 µM), 0.77. For the same cell line, the relative viability is 0.529 in assay [1] (0.8 µM); 0.707 in assay [1] (2.53 µM); 0.587 in assay [1] (8 µM); 0.92 in the assay with Tosedostat + Alpelisib (first compound 0.02 µM); 1.01 with Tosedostat + Alpelisib (first compound 0.06325 µM); 0.697 with Tosedostat + Alpelisib (first compound 0.2 µM). In addition, the relative viability is 0.984 with Tosedostat + Alpelisib (first compound 0.6325 µM); 0.744 with Tosedostat + Alpelisib (first compound 2 µM); 0.315 in assay [2] (first compound 0.253 µM); 0.318 in assay [2] (first compound 0.8 µM); 0.231 in assay [2] (first compound 2.53 µM); 0.17 in assay [2] (first compound 8 µM).
LC-2-ad: the relative viability in the assay with Tosedostat (0.02 µM) amounted to 1.13; with Tosedostat (0.06325 µM) it was 1.02; with Tosedostat (0.2 µM) it was 0.963; in the assay with Tosedostat (0.6325 µM) it was 0.871; in the assay with Tosedostat (2 µM), 0.818; in assay [1] (0.253 µM), 0.407. In addition, the relative viability in assay [1] (0.8 µM) turned out to be 0.431; in assay [1] (2.53 µM), 0.44; in assay [1] (8 µM), 0.409; with Tosedostat + Alpelisib (first compound 0.02 µM), 0.932; with Tosedostat + Alpelisib (first compound 0.06325 µM), 0.885; with Tosedostat + Alpelisib (first compound 0.2 µM) it was 0.852. Also, the relative viability in the assay with Tosedostat + Alpelisib (first compound 0.6325 µM) turned out to be 0.889; with Tosedostat + Alpelisib (first compound 2 µM), 0.74; in assay [2] (first compound 0.253 µM), 0.267; in assay [2] (first compound 0.8 µM), 0.27; in assay [2] (first compound 2.53 µM), 0.282; in assay [2] (first compound 8 µM) it was 0.239.
In the case of LCLC-97TM1, the relative viability with Tosedostat (0.02 µM) was found to be 1.12; in the assay with Tosedostat (0.06325 µM), 0.973; with Tosedostat (0.2 µM), 0.876; with Tosedostat (0.6325 µM) it was 0.83; with Tosedostat (2 µM) it was 0.621; in assay [1] (0.253 µM), 0.795. Moreover, the relative viability was 0.564 in assay [1] (2.53 µM); 0.548 in assay [1] (8 µM); 0.199 with Tosedostat + Alpelisib (first compound 0.02 µM); 0.247 with Tosedostat + Alpelisib (first compound 0.6325 µM); 0.211 with Tosedostat + Alpelisib (first compound 2 µM); 0.184 in assay [2] (first compound 0.253 µM). Further, the relative viability in assay [2] (first compound 2.53 µM) amounted to 0.199; in assay [2] (first compound 8 µM), 0.184.
Take LCLC-103H: the relative viability worked out at 1.06 with Tosedostat (0.02 µM); 0.95 with Tosedostat (0.06325 µM); 1 with Tosedostat (0.2 µM); 1.11 in the assay with Tosedostat (0.6325 µM); 1.07 with Tosedostat (2 µM); 0.604 in assay [1] (0.253 µM). For the same cell line, the relative viability in assay [1] (0.8 µM) was determined as 0.71; in assay [1] (2.53 µM) it was 0.705; in assay [1] (8 µM), 0.632; with Tosedostat + Alpelisib (first compound 0.02 µM), 0.896; with Tosedostat + Alpelisib (first compound 0.06325 µM), 0.95; with Tosedostat + Alpelisib (first compound 0.2 µM) it was 0.948. Also, the relative viability stood at 1.11 with Tosedostat + Alpelisib (first compound 0.6325 µM); 1.07 in the assay with Tosedostat + Alpelisib (first compound 2 µM); 0.435 in assay [2] (first compound 0.253 µM); 0.418 in assay [2] (first compound 0.8 µM); 0.403 in assay [2] (first compound 2.53 µM); 0.409 in assay [2] (first compound 8 µM).
Turning to LK-2, the relative viability came to 1.13 with Tosedostat (0.02 µM); 1.11 with Tosedostat (0.06325 µM); 0.926 in the assay with Tosedostat (0.2 µM); 0.954 with Tosedostat (0.6325 µM); 1.13 with Tosedostat (2 µM); 0.965 in assay [1] (0.253 µM). Further, the relative viability in assay [1] (0.8 µM) is 0.823; in assay [1] (2.53 µM), 1.01; in assay [1] (8 µM), 1.02; with Tosedostat + Alpelisib (first compound 0.02 µM), 1.55; with Tosedostat + Alpelisib (first compound 0.06325 µM), 1.03; with Tosedostat + Alpelisib (first compound 0.2 µM) it was 1.13. The relative viability was found to be 1.27 with Tosedostat + Alpelisib (first compound 0.6325 µM); 1.11 in the assay with Tosedostat + Alpelisib (first compound 2 µM); 0.318 in assay [2] (first compound 0.253 µM); 0.256 in assay [2] (first compound 0.8 µM); 0.377 in assay [2] (first compound 2.53 µM); 0.255 in assay [2] (first compound 8 µM).
Consider LOU-NH91, for which the relative viability with Tosedostat (0.02 µM) is 1.04; with Tosedostat (0.06325 µM), 1.01; with Tosedostat (0.2 µM), 0.937; with Tosedostat (0.6325 µM), 0.919; with Tosedostat (2 µM) it was 0.86; in assay [1] (0.8 µM), 0.866. Also, the relative viability in assay [1] (2.53 µM) worked out at 0.908; in assay [1] (8 µM) it was 0.957; with Tosedostat + Alpelisib (first compound 0.02 µM) it was 0.695; in the assay with Tosedostat + Alpelisib (first compound 0.06325 µM), 0.704; with Tosedostat + Alpelisib (first compound 0.2 µM), 0.741; with Tosedostat + Alpelisib (first compound 0.6325 µM), 0.706. In addition, the relative viability in the assay with Tosedostat + Alpelisib (first compound 2 µM) was determined as 0.674; in assay [2] (first compound 0.8 µM), 0.386; in assay [2] (first compound 2.53 µM), 0.394; in assay [2] (first compound 8 µM), 0.424.
